Data taken from patent US8586822B2, “Methods for producing a non human model for aortic aneurysm” (INSERM (Institut National de la Sante et de la Recherche …, priority 2007, dated 2013).

Experiments:
[1] = test system: CD28− mice treated with angiotensin II; test: CD28− mice treated with angiotensin II and trichostatin; format: in vivo, mouse; conditions: 1 mg/kg/day for 14 days, angiotensin II-infused CD28− mice
Procedure: Baseline blood pressure measurements were determined on 5 consecutive days. After these baseline recordings, an osmotic minipump (Alzet Model 2004; DURECT) infusing Angiotensin II (Ang II) (Sigma, St. Louis, Mo.) at a rate of 1,000 ng/kg/min was implanted s.c. and blood pressure measurements continued for 28 days to verify continuous hypertension. The animals ingested either a normal diet containing 0.4% sodium chloride or a high salt diet with 5% sodium chloride (SDS) to accentuate hypertension and kidney injury. All animals studied were between 8 and 14 wk old. The protocol followed the French Department of Agriculture and the National Institute of Health guidelines for animal care and protection. For both strains, all experiments used age- and sex-matched wild-type and genetically altered animals with similar genetic background (C57Bl/6J background). Normal C57Bl/6J and CD28 deficient animals were obtained from Charles River Laboratories. B7.1/B7.2 (CD80/CD86) deficient animals were obtained from Dr. Benoit Salomon (Université Pierre et Marie Curie-CNRS U7087 laboratory, Paris). Anti-pan-TGF-beta antibody (clone 2G7) was administrated thrice a week i.p. at the dose of 500 μg/mouse for two weeks, then at the dose of 150 μg/mouse for the following two weeks. […]

AAA = conditions: in vivo; cited from earlier work

SMILES	aneurysm [1]	effects in AAA (AAA)
CC(/C=C/C(=O)NO)=C\[C@@H](C)C(=O)c1ccc(N(C)C)cc1 [trichostatin]	prevented aneurysm	
CC[C@H]1OC(=O)[C@H](C)[C@@H](O[C@H]2C[C@@](C)(OC)[C@@H](O)[C@H](C)O2)[C@H](C)[C@@H](O[C@@H]2O[C@H](C)C[C@H](N(C)C)[C@H]2O)[C@](C)(O)C[C@@H](C)/C(=N\OCOCCOC)[C@H](C)[C@@H](O)[C@]1(C)O [roxithromycin]		modest effects
